In brackets after ≈: the same amount, converted by molar mass. Several values for one entry are separate records, joined by “and”; a condition that tells them apart may be missing. Identical values can stand only once. Like-named read-outs stand apart in the source and are kept apart here.
Tests used:
[1] = target: T1, HIV-1 reverse transcriptase (RT) (Human immunodeficiency virus type 1 BH10, UniProt P03366); test: Acellular in-vitro inhibition of reverse transcriptase (polyrC-oligodG template-primer-complex); type: biochemical
T1 construct: mature RT from Gag-Pol polyprotein (pr160Gag-Pol)
Procedure: ADA in a liquid medium was tested in an acellular in-vitro system for any inhibitory effect on HIV-1 reverse transcriptase (RT) using the polyrC-oligodG template-primer-complex. […] From concentrations of 60 μgr/ml upward, there is a 50% inhibition of RT. […] Therefore, ADA inhibits HIV replication with an as yet unknown but original mode of action.

[2] = system: HIV-1 strain IIIB /LAI; test: Inhibition of HIV-1 replication in acutely infected PBLs (p24 ELISA); type: cell-based; conditions: for Protection: "Toxic" means that the cells are destroyed
Procedure: A new assay was conducted by the AIDS laboratory of the REGA Institute for Medical Research of the Katholieke Universiteit of Leuven.
1,1'-azobisformamide was purchased from Riedel de Haen and stored in a refrigerator (4°-8° C.) under light-protected conditions. Dilutions were prepared in order to obtain concentrations of 0.4 μg/ml, 2 μg/ml, 10 μg/ml, 50 μg/ml and 250 μg/ml.
Peripheral Blood Lymphocytes (PBLs) were freshly collected from a single donor. PBLs were activated by phytohemagglutinin at 2 μg/ml during 3 days, and then cultured in the presence of IL-2 for 1 week.
HIV-1 strain IIIB /LAI was provided by R. C. Gallo (Popovic M. et al, Science 1984, 224:497-500). Stocks were obtained from the culture supernatants of HIV-1 infected cell lines (HUT 78/IIIB /LAI).
The inhibitory effects of 1,1'-azobisformamide on the replication of strain IIIB /LAI in PBLs were monitored by the detection of HIV-1 p24 core antigens. PBLs were incubated with an excess of strain IIIB /LAI at 37° C. for 60 min. All cells were washed once with RPMI 1640 medium. Thereafter cells were plated at 1×10^6 cells per ml in the presence of various concentrations of the test compound. Seven days after plating PBLs, p24 antigens were detected by enzyme-linked immunosorbent assay (ELISA) (HIV-1 p24 Core Profile ELISA from Du Pont).
This method comprises measuring the concentration of the viral antigen p24 in the supernatant, i.e., the concentration of free viruses produced by replication of the viruses present in the infected cells. This measure is expressed as a measure of protection (see Table I below), where [formula]

[3] = Single oral doses to healthy volunteers, tolerability and safety; type: in vivo, human
Procedure: Pharmaceutical grade ADA in gelatin capsules, each containing 500 mg, was administered as single oral doses to healthy volunteers to determine its tolerability and safety. […] These changes were reversible within 4-6 hours from intake.

[4] = system: Vesicular Stomatitis Virus (VSV); test: microbe, parasite or virus in culture; type: cell-based; design: TCID 50: unit not given here; conditions: for log reduction at 50 µg/mL / log reduction at 100 µg/mL / log reduction at 150 µg/mL / log reduction at 250 µg/mL: Vesicular stomatitis virus, Vero
[5] = system: HIV-1 Wild A; test: Inhibition of HIV replication in PBL's; type: cell-based; conditions: Human immunodeficiency virus 1
[6] = system: genes "GAG", "LTR" and "ENV" of the HIV-1 provirus; test: Integration of viral genome into chromosomic DNA of Supt-1 cells (PCR); type: cell-based; conditions: 35 μgr/ml; virus incubated for 15 minutes
Procedure: By means of a genetic amplification through a thermostable polymerase, the presence of genes "GAG", "LTR" and "ENV" of the HIV-1 provirus is evidenced. This method is called P.C.R. Polymerase chain Reaction) (Chin-Yih Ou et al., Sciences 239, 295-297, 1988).
Said method is applied for detecting HIV-1 provirus in the genome of Supt-1 cells inoculated with HIV-1 virus incubated with […] (dilution 1/100), as described in Example 8
Amplified oligonucleotides, UV visible by means of ethidium bromide appear only in the tubes corresponding to an inoculation with HIV-1 viruses which were not treated with the active substance.
One proceeds as in Example 11(c). The search of genes "GAG", "LTR" and "ENV" has been made in cellular cultures inoculated with a virus incubated for 15 minutes with the active substance. This search is appeared as being negative, and thus it can be concluded that 1.1'-azobisformamide at the dosage of 35 μgr/ml protects the cells against infection by HIV-1.
Examples 10c and 11c disclose a more accurate method than the ELISA test for examining whether the inoculated cells contain HIV-1 at the end of the assay, i.e., the PCR-Method.

[7] = single oral doses, one volunteer

NC(=O)N=NC(N)=O [ADA, 1,1'-azobisformamide]
RT inhibition ([1]; at concentrations up to the IC90): not an RT-inhibitor
inhibition of RT ([1]; from concentrations of 60 μgr/ml upward): 50%
Protection ([2]; 50 μg/ml): Toxic
Protection ([2]; 250 μg/ml): Toxic
inhibition at 0.4 µg/mL ([2]; Human immunodeficiency virus 1, IIIB, 168 h, 0.4 μg/ml, read-out: Protection): 15.2%
inhibition at 2 µg/mL ([2]; Human immunodeficiency virus 1, IIIB, 168 h, 2 μg/ml, read-out: Protection): 45.8%
inhibition at 10 µg/mL ([2]; Human immunodeficiency virus 1, IIIB, 168 h, 10 μg/ml, read-out: Protection): 77.6%
IC50 ([2]; Human immunodeficiency virus 1, PBLs acutely infected with IIIB /LAI): 2.47 µg/mL (≈ 21.3 µM)
adverse effects on hematological and chemical parameters in blood and urine ([3]; 40 mg/kg or 60 mg/kg): No adverse effects were observed
adverse effects on blood pressure, pulse, or respiratory rate ([3]; any of the tested dosages): No adverse effects were observed
glutathione in peripheral blood ([3]; from doses of 40 mg/kg): slightly depressed
methemoglobin reduces [reductase] in peripheral blood ([3]; from doses of 40 mg/kg): slightly depressed
reversibility of the changes, time from intake ([3]; from doses of 40 mg/kg): 4 to 6 h
tolerability ([3]; single oral dosages of up to 60 mg per kg body weight): well tolerated
methemoglobin [3, 7]: dose-related increase in methemoglobin
return of methemoglobin to normal [3, 7]: within half an hour
time of methemoglobin Cmax after intake [3, 7]: 1 to 1.5 h
TCID 50 [4]: 6.90 and 6.73 and 6.55 and 4.28 and 3.75 and 3.58 and 3.93
log reductions [4]: > 2.0
log reduction at 50 µg/mL ([4]; 10 min, read-out: Log Red): 1.05
log reduction at 100 µg/mL ([4]; 10 min, read-out: Log Red): 1.22
log reduction at 150 µg/mL ([4]; 10 min, read-out: Log Red): 1.22
log reduction at 250 µg/mL ([4]; 10 min, read-out: Log Red): 1.4
log reduction at 50 µg/mL ([4]; 1 h, read-out: Log Red): 1.4
log reduction at 100 µg/mL ([4]; 1 h, read-out: Log Red): 1.22
log reduction at 150 µg/mL ([4]; 1 h, read-out: Log Red): 1.4
log reduction at 250 µg/mL ([4]; 1 h, read-out: Log Red): 1.4
log reduction at 50 µg/mL ([4]; 20 h, read-out: Log Red): 1.75
log reduction at 100 µg/mL ([4]; 20 h, read-out: Log Red): 2.28
log reduction at 150 µg/mL ([4]; 20 h, read-out: Log Red): 2.45
log reduction at 250 µg/mL ([4]; 20 h, read-out: Log Red): 2.1
log reduction at 150 µg/mL ([4]; read-out: log reduction (strongest effect)): 2.28
IC50 [5]: 8.9 µg/mL (≈ 76.7 µM)
IC90 [5]: 17.4 µg/mL (≈ 150 µM)
search of genes "GAG", "LTR" and "ENV" [6]: negative

From US5585367A (priority 1990, dated 1996)
